The test has as its system MV-4-11 cells. The experiment in a line: Gene expression microarray analysis (Affymetrix PrimeView) and GSEA. Type of test: cell-based, human. On the set-up: RFU PODN (11730768_x_at) / Fold change /veh PODN (11730768_x_at) / RFU LINC00158 (11744669_a_at) / Fold change /veh LINC00158 (11744669_a_at) / RFU DUSP10 (11751237_a_at) / Fold change /veh DUSP10 (11751237_a_at) / RFU ID3 (11757404_x_at) / Fold change /veh ID3 (11757404_x_at) / RFU PLEKHG5 (11737974_s_at) / Fold change /veh PLEKHG5 (11737974_s_at) / RFU LRRC4B (11730491_at) / Fold change /veh LRRC4B (11730491_at) / RFU GIMAP4 (11747438_a_at) / Fold change /veh GIMAP4 (11747438_a_at) / RFU KRT8 (11758183_x_at) / Fold change /veh KRT8 (11758183_x_at) / RFU CNN1 (11734310_a_at) / Fold change /veh CNN1 (11734310_a_at) / RFU VPS37D (11726825_at) / Fold change /veh VPS37D (11726825_at) / RFU C10orf10 (11716522_x_at) / Fold change /veh C10orf10 (11716522_x_at) / RFU KIR2DL2 /// KIR2DL4 /// KIR2DL5A /// KIR2DL5B /// KIR2DS1 /// KIR2DS2 /// KIR2DS3 /// KIR2DS4 /// KIR3DL3 /// KIR3DL3 /// KIR3DS1 (11738374_at) / Fold change /veh KIR2DL2 /// KIR2DL4 /// KIR2DL5A /// KIR2DL5B /// KIR2DS1 /// KIR2DS2 /// KIR2DS3 /// KIR2DS4 /// KIR3DL3 /// KIR3DL3 /// KIR3DS1 (11738374_at) / RFU C1QL1 (11718748_at) / Fold change /veh C1QL1 (11718748_at) / RFU TMPRSS4 (11747572_a_at) / Fold change /veh TMPRSS4 (11747572_a_at) / RFU HAMP (11756126_x_at) / Fold change /veh HAMP (11756126_x_at) / RFU RNFT2 (11725882_a_at) / Fold change /veh RNFT2 (11725882_a_at) / RFU NR4A2 (11747474_a_at) / Fold change /veh NR4A2 (11747474_a_at) / RFU ABCC12 (11746883_a_at) / Fold change /veh ABCC12 (11746883_a_at) / RFU TMEM136 (11760407_x_at) / Fold change /veh TMEM136 (11760407_x_at) / RFU CLDN22 /// WWC2 (11732394_at) / Fold change /veh CLDN22 /// WWC2 (11732394_at) / RFU HLA-DPB1 (11760878_x_at) / Fold change /veh HLA-DPB1 (11760878_x_at) / RFU SPINT1 (11716480_a_at) / Fold change /veh SPINT1 (11716480_a_at) / RFU GAP43 (11754022_s_at) / Fold change /veh GAP43 (11754022_s_at) / RFU A4GNT (11735810_at) / Fold change /veh A4GNT (11735810_at) / RFU PRB3 (11715151_x_at) / Fold change /veh PRB3 (11715151_x_at) / RFU TUBB4B (11761932_at) / Fold change /veh TUBB4B (11761932_at) / RFU CAPN14 (11732068_a_at) / Fold change /veh CAPN14 (11732068_a_at) / RFU TMCC2 (11721928_a_at) / Fold change /veh TMCC2 (11721928_a_at) / RFU IRGQ (11745062_a_at) / Fold change /veh IRGQ (11745062_a_at) / RFU FAM174B (11720279_a_at) / Fold change /veh FAM174B (11720279_a_at) / RFU TMPRSS4 (11748680_a_at) / Fold change /veh TMPRSS4 (11748680_a_at) / RFU FAM212B (11763350_a_at) / Fold change /veh FAM212B (11763350_a_at) / RFU PLEKHG5 (11743358_a_at) / Fold change /veh PLEKHG5 (11743358_a_at) / RFU ZSCAN30 (11745921_a_at) / Fold change /veh ZSCAN30 (11745921_a_at) / RFU CMKLR1 (11741424_a_at) / Fold change /veh CMKLR1 (11741424_a_at) / RFU LOC101060620 /// MAPK8IP1 (11723275_at) / Fold change /veh LOC101060620 /// MAPK8IP1 (11723275_at) / RFU SPTSSB (11747773_x_at) / Fold change /veh SPTSSB (11747773_x_at) / RFU PRSS12 (11739890_at) / Fold change /veh PRSS12 (11739890_at) / RFU BIN1 (11741810_x_at) / Fold change /veh BIN1 (11741810_x_at) / RFU WNT11 (11732464_a_at) / Fold change /veh WNT11 (11732464_a_at) / RFU C10orf10 (11716521_a_at) / Fold change /veh C10orf10 (11716521_a_at) / RFU C5orf56 (11738089_at) / Fold change /veh C5orf56 (11738089_at) / RFU CYB561 (11721691_x_at) / Fold change /veh CYB561 (11721691_x_at) / RFU ANKRD19P (11752326_a_at) / Fold change /veh ANKRD19P (11752326_a_at) / RFU OR2T12 /// OR2T33 /// OR2T8 (11738714_s_at) / Fold change /veh OR2T12 /// OR2T33 /// OR2T8 (11738714_s_at) / RFU VCAN (11748164_a_at) / Fold change /veh VCAN (11748164_a_at) / RFU JSRP1 (11732532_at) / Fold change /veh JSRP1 (11732532_at) / RFU KRTAP10-11 (11738290_x_at) / Fold change /veh KRTAP10-11 (11738290_x_at) / RFU MYO3A (11730013_a_at) / Fold change /veh MYO3A (11730013_a_at) / RFU EBF3 (11725865_a_at) / Fold change /veh EBF3 (11725865_a_at) / RFU CAMK2N1 (11719241_x_at) / Fold change /veh CAMK2N1 (11719241_x_at) / RFU C5orf56 (11738088_a_at) / Fold change /veh C5orf56 (11738088_a_at) / RFU OLFML3 (11715873_a_at) / Fold change /veh OLFML3 (11715873_a_at) / RFU LOC100653217 /// NTM (11731650_a_at) / Fold change /veh LOC100653217 /// NTM (11731650_a_at) / RFU MAPK11 (11762145_a_at) / Fold change /veh MAPK11 (11762145_a_at) / RFU FIZ1 (11724087_x_at) / Fold change /veh FIZ1 (11724087_x_at) / RFU OASL (11726364_x_at) / Fold change /veh OASL (11726364_x_at) / RFU SOX15 (11748057_x_at) / Fold change /veh SOX15 (11748057_x_at) / RFU CD79A (11719716_a_at) / Fold change /veh CD79A (11719716_a_at) / RFU HIST1H1D (11736915_at) / Fold change /veh HIST1H1D (11736915_at) / RFU CASKIN2 (11723855_a_at) / Fold change /veh CASKIN2 (11723855_a_at) / RFU LOC730098 (11760151_x_at) / Fold change /veh LOC730098 (11760151_x_at) / RFU OR4N2 (11742367_at) / Fold change /veh OR4N2 (11742367_at) / RFU PRRT2 (11749266_a_at) / Fold change /veh PRRT2 (11749266_a_at) / RFU SNX32 (11753110_a_at) / Fold change /veh SNX32 (11753110_a_at) / RFU CDHR5 (11726645_a_at) / Fold change /veh CDHR5 (11726645_a_at) / RFU RCAN1 (11760418_a_at) / Fold change /veh RCAN1 (11760418_a_at) / RFU FAM167A (11723789_a_at) / Fold change /veh FAM167A (11723789_a_at) / RFU FAM26E (11764081_at) / Fold change /veh FAM26E (11764081_at) / RFU ISYNA1 (11749810_s_at) / Fold change /veh ISYNA1 (11749810_s_at) / RFU ACY1 (11761880_at) / Fold change /veh ACY1 (11761880_at) / RFU 11764098_at / Fold change /veh 11764098_at / RFU SAMD14 (11745864_x_at) / Fold change /veh SAMD14 (11745864_x_at) / RFU NPB (11741838_a_at) / Fold change /veh NPB (11741838_a_at) / RFU TMPRSS6 (11731388_a_at) / Fold change /veh TMPRSS6 (11731388_a_at) / RFU KRTAP10-2 (11738614_at) / Fold change /veh KRTAP10-2 (11738614_at) / RFU ARHGAP8 /// PRR5-ARHGAP8 (11727945_x_at) / Fold change /veh ARHGAP8 /// PRR5-ARHGAP8 (11727945_x_at) / RFU KRTAP5-7 /// NADSYN1 (11734609_at) / Fold change /veh KRTAP5-7 /// NADSYN1 (11734609_at) / RFU RASL12 (11751679_a_at) / Fold change /veh RASL12 (11751679_a_at) / RFU CDKN2B (11736163_a_at) / Fold change /veh CDKN2B (11736163_a_at) / RFU PRF1 (11729649_at) / Fold change /veh PRF1 (11729649_at) / RFU, ZNF638 /// ZNF638-IT1 / Fold change vs veh, ZNF638 /// ZNF638-IT1 / RFU, PANK3 / Fold change vs veh, PANK3 / RFU, SH3YL1 / Fold change vs veh, SH3YL1 / RFU, ZEB2 / Fold change vs veh, ZEB2 / RFU, NRIP1 / Fold change vs veh, NRIP1 / RFU, PTTG1IP / Fold change vs veh, PTTG1IP / RFU, CAPN2 / Fold change vs veh, CAPN2 / RFU, MED14 / Fold change vs veh, MED14 / RFU, SNORA58 / Fold change vs veh, SNORA58 / RFU, C1orf63 / Fold change vs veh, C1orf63 / RFU, LRRFIP1 / Fold change vs veh, LRRFIP1 / RFU, NDUFAF7 / Fold change vs veh, NDUFAF7 / RFU, SLC12A2 / Fold change vs veh, SLC12A2 / RFU, IBTK / Fold change vs veh, IBTK / RFU, ESF1 / Fold change vs veh, ESF1 / Fold change vs veh, TMEM50B / RFU, TAOK1 / Fold change vs veh, TAOK1 / RFU, ACBD3 / Fold change vs veh, ACBD3 / RFU, TMA16 / Fold change vs veh, TMA16 / RFU, RWDD3 / Fold change vs veh, RWDD3 / RFU, BCAT1 / Fold change vs veh, BCAT1 / RFU, EDEM3 / Fold change vs veh, EDEM3 / RFU, TMEM33 / Fold change vs veh, TMEM33 / RFU, WDR75 / Fold change vs veh, WDR75 / RFU, AHCTF1 / Fold change vs veh, AHCTF1 / RFU, TFRC / Fold change vs veh, TFRC / RFU, ZDHHC17 / Fold change vs veh, ZDHHC17 / RFU, NOM1 / Fold change vs veh, NOM1 / RFU, ARL8B / Fold change vs veh, ARL8B / RFU, ZBTB11 / Fold change vs veh, ZBTB11 / RFU, TAMM41 / Fold change vs veh, TAMM41 / RFU, KIAA1704 /// LOC100996395 / Fold change vs veh, KIAA1704 /// LOC100996395 / RFU, ING1 / Fold change vs veh, ING1 / RFU, TRMT61B / Fold change vs veh, TRMT61B / RFU, FUBP3 / Fold change vs veh, FUBP3 / RFU, TP53 / Fold change vs veh, TP53 / RFU, TNKS2 / Fold change vs veh, TNKS2 / RFU, ZFP14 / Fold change vs veh, ZFP14 / RFU, ACTR2 / Fold change vs veh, ACTR2 / RFU, PPP3R1 / Fold change vs veh, PPP3R1 / RFU, PIK3R1 / Fold change vs veh, PIK3R1 / RFU, HNRNPA1 / Fold change vs veh, HNRNPA1 / RFU, RNF170 / Fold change vs veh, RNF170 / RFU, ZNF28 / Fold change vs veh, ZNF28 / RFU, RNGTT / Fold change vs veh, RNGTT / RFU, OGT / Fold change vs veh, OGT / RFU, BRD1 / Fold change vs veh, BRD1 / RFU, MARS / Fold change vs veh, MARS / RFU, ZNF655 / Fold change vs veh, ZNF655 / RFU, FAHD1 / Fold change vs veh, FAHD1 / RFU, BDP1 / Fold change vs veh, BDP1 / RFU, LRRCC1 / Fold change vs veh, LRRCC1 / RFU, ARID1A / Fold change vs veh, ARID1A / RFU, ZNF146 / Fold change vs veh, ZNF146 / RFU, ZNF330 / Fold change vs veh, ZNF330 / RFU, GPN3 / Fold change vs veh, GPN3 / RFU, C9orf123 / Fold change vs veh, C9orf123 / RFU, N4BP2L2 / Fold change vs veh, N4BP2L2 / RFU, ARFIP1 / Fold change vs veh, ARFIP1 / RFU, FAM179B / Fold change vs veh, FAM179B / RFU, BCL10 / Fold change vs veh, BCL10 / RFU, UHRF1BP1L / Fold change vs veh, UHRF1BP1L / RFU, BET1 / Fold change vs veh, BET1 / RFU, CNOT2 / Fold change vs veh, CNOT2 / RFU, ZNF268 / Fold change vs veh, ZNF268 / Fold change vs veh, ZNF507 / RFU, DGCR2 / Fold change vs veh, DGCR2 / RFU, WDSUB1 / Fold change vs veh, WDSUB1 / Fold change vs veh, HSP90B1 /// MIR3652 / RFU, ADSS / Fold change vs veh, ADSS / RFU, GK / Fold change vs veh, GK / RFU, ZNF148 / Fold change vs veh, ZNF148 / RFU, TAF9 / Fold change vs veh, TAF9 / RFU, SLC1A5 / Fold change vs veh, SLC1A5 / RFU, SLMO2 / Fold change vs veh, SLMO2 / RFU, ABCC4 / Fold change vs veh, ABCC4 / RFU, LOC101060439 /// RAP1B / Fold change vs veh, LOC101060439 /// RAP1B / RFU, RFX7 / Fold change vs veh, RFX7 / RFU, GTPBP10 / Fold change vs veh, GTPBP10 / RFU, CNEP1R1 / Fold change vs veh, CNEP1R1 / RFU, BIVM-ERCC5 /// ERCC5 / Fold change vs veh, BIVM-ERCC5 /// ERCC5 / RFU, ILF3 / Fold change vs veh, ILF3 / RFU 11762660_at / Fold change /veh 11762660_at / RFU VCAN (11757783_s_at) / Fold change /veh VCAN (11757783_s_at) / RFU DDX43 (11728927_at) / Fold change /veh DDX43 (11728927_at) / RFU KRT8 (11758188_x_at) / Fold change /veh KRT8 (11758188_x_at) / RFU NKD1 (11759106_at) / Fold change /veh NKD1 (11759106_at) / RFU SRD5A1 (11742802_a_at) / Fold change /veh SRD5A1 (11742802_a_at) / RFU TPSAB1 /// TPSB2 (11721975_s_at) / Fold change /veh TPSAB1 /// TPSB2 (11721975_s_at) / RFU GSTM3 (11746129_a_at) / Fold change /veh GSTM3 (11746129_a_at) / RFU IL23R (11737362_x_at) / Fold change /veh IL23R (11737362_x_at) / RFU TMEM51 (11727254_a_at) / Fold change /veh TMEM51 (11727254_a_at) / RFU PIWIL2 (11732686_x_at) / Fold change /veh PIWIL2 (11732686_x_at) / RFU ORM1 (11744905_x_at) / Fold change /veh ORM1 (11744905_x_at) / RFU CCDC152 (11743942_at) / Fold change /veh CCDC152 (11743942_at) / RFU ECM1 (11717891_a_at) / Fold change /veh ECM1 (11717891_a_at) / RFU IL23R (11748794_a_at) / Fold change /veh IL23R (11748794_a_at) / RFU TNFAIP8L3 (11732012_x_at) / Fold change /veh TNFAIP8L3 (11732012_x_at) / RFU MBOAT4 (11741988_at) / Fold change /veh MBOAT4 (11741988_at) / RFU 11764193_at / Fold change /veh 11764193_at / RFU TMEM53 (11763286_at) / Fold change /veh TMEM53 (11763286_at) / RFU MAGEB2 (11727129_at) / Fold change /veh MAGEB2 (11727129_at) / RFU TMEM200A (11744735_a_at) / Fold change /veh TMEM200A (11744735_a_at) / RFU CCDC152 (11751479_a_at) / Fold change /veh CCDC152 (11751479_a_at) / RFU FAM211A (11726209_a_at) / Fold change /veh FAM211A (11726209_a_at) / RFU RGS16 (11746705_a_at) / Fold change /veh RGS16 (11746705_a_at) / RFU VCAN (11755009_s_at) / Fold change /veh VCAN (11755009_s_at) / RFU RHOB (11743442_s_at) / Fold change /veh RHOB (11743442_s_at) / RFU RGS16 (11720943_a_at) / Fold change /veh RGS16 (11720943_a_at) / RFU RGS16 (11720944_at) / Fold change /veh RGS16 (11720944_at) / RFU, VPS4B / Fold change vs veh, VPS4B / RFU, CREB1 / Fold change vs veh, CREB1 / RFU, DNAJC13 / Fold change vs veh, DNAJC13 / RFU, GNAQ / Fold change vs veh, GNAQ / RFU, CDK5R1 / Fold change vs veh, CDK5R1 / RFU, ZRANB3 / Fold change vs veh, ZRANB3 / RFU, CUL4A / Fold change vs veh, CUL4A / RFU, CCNY / Fold change vs veh, CCNY / RFU, UFL1 / Fold change vs veh, UFL1 / RFU, COG3 / Fold change vs veh, COG3 / RFU, DIAPH2 / Fold change vs veh, DIAPH2 / RFU, SKA2 / Fold change vs veh, SKA2 / RFU, AFF3 / Fold change vs veh, AFF3 / RFU, LMF1 / Fold change vs veh, LMF1 / RFU, IPO11 / Fold change vs veh, IPO11 / RFU, DFFB / Fold change vs veh, DFFB / RFU, FOXP1 / Fold change vs veh, FOXP1 / RFU, CARD8 / Fold change vs veh, CARD8 / RFU, STRN3 / Fold change vs veh, STRN3 / RFU, ADK / Fold change vs veh, ADK / RFU, RASSF2 / Fold change vs veh, RASSF2 / RFU, WIPF1 / Fold change vs veh, WIPF1 / RFU, LARP1B / Fold change vs veh, LARP1B / RFU, RASA1 / Fold change vs veh, RASA1 / RFU, RB1 / Fold change vs veh, RB1 / RFU, PPFIA1 / Fold change vs veh, PPFIA1 / RFU, MAT2A / Fold change vs veh, MAT2A / RFU, CCT5 / Fold change vs veh, CCT5 / RFU, WDR92 / Fold change vs veh, WDR92 / RFU, CUX1 / Fold change vs veh, CUX1 / RFU, TTC7A / Fold change vs veh, TTC7A / RFU, TMEM135 / Fold change vs veh, TMEM135 / RFU, DEPTOR / Fold change vs veh, DEPTOR / RFU, CPM / Fold change vs veh, CPM / RFU, DNAJB6 / Fold change vs veh, DNAJB6 / RFU, CACNA2D3 / Fold change vs veh, CACNA2D3 / RFU, DTX4 / Fold change vs veh, DTX4 / RFU, TFCP2 / Fold change vs veh, TFCP2 / RFU, GMCL1 /// GMCL1P1 / Fold change vs veh, GMCL1 /// GMCL1P1 / RFU, AEBP2 / Fold change vs veh, AEBP2 / RFU, SNHG1 /// SNORD22 /// SNORD25 /// SNORD26 /// SNORD27 /// SNORD28 /// SNORD29 /// SNORD31 / Fold change vs veh, SNHG1 /// SNORD22 /// SNORD25 /// SNORD26 /// SNORD27 /// SNORD28 /// SNORD29 /// SNORD31 / Fold change (Aza/veh), C12orf56 (ProbeSet 11735607_a_at) / Fold change (ACY-1035/veh), C12orf56 (ProbeSet 11735607_a_at) / Fold change (Aza/veh), FGFR1OP (ProbeSet 11751329_s_at) / Fold change (ACY-1035/veh), FGFR1OP (ProbeSet 11751329_s_at) / Fold change (Aza/veh), VPS36 (ProbeSet 11739960_a_at) / Fold change (ACY-1035/veh), VPS36 (ProbeSet 11739960_a_at) / RFU SYPL1 (11715823_x_at) / Fold change /veh SYPL1 (11715823_x_at) / RFU IGFBP7 (11715501_s_at) / Fold change /veh IGFBP7 (11715501_s_at) / RFU REEP3 (11722064_at) / Fold change /veh REEP3 (11722064_at) / RFU IGLL1 (11728026_x_at) / Fold change /veh IGLL1 (11728026_x_at): dose or concentration left out as unconfirmed. The settings on record: MV-4-11 cells, 48 hours.

SMILES strings stand for the structures.

With `Nc1ccc(-c2cccs2)cc1NC(=O)c1ccc2c(c1)cc(C1CC1)n2CCN1CCOCC1` [ACY-1035], the “RFU KRT8 (11758188_x_at)” value is 20.03 RFU.
